Biological target: T1, MeCP2-TBL1 interaction (MeCP2-SmBiT / TBL1-LgBiT) (Mus musculus, UniProt Q9QXE7)
T1 construct: expressed in transfected cells; crude lysate used as a cell-free assay
T1 sequence (Q9QXE7 166-527): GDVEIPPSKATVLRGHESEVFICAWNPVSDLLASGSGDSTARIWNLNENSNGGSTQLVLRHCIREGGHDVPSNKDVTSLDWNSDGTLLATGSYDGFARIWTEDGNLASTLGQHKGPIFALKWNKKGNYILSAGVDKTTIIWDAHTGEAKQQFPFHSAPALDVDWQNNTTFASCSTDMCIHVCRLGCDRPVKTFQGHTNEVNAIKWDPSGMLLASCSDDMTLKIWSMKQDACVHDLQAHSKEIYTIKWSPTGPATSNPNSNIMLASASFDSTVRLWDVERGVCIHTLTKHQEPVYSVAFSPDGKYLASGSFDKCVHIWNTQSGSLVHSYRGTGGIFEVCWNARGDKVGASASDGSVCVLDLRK
Assay: MeCP2-TBL1 NanoLuc luciferase complementation assay (cell-free, extracts of transfected HEK293 cells);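 also: each compound tested at 20 µM final concentration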
Assay type: binding, human
Procedure, shortened: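 Cell-free split NanoLuc: lysate of HEK293 cells co-expressing the MeCP2 C-terminal half-SmBiT and TBL1 WD domain-LgBiT, mixed 1:1 with furimazine. After 30 min at room temperature, luminescence was plate-median normalized.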

[1] = primary screen of the Asinex library, sheet "Sargen output Asinex library", one well per compound, Batch Ref. 1
[2] = primary screen of Asinex library, single well per compound
[3] = primary screen of the Asinex library, sheet "Sargen output Asinex library", one well per compound

Structure (SMILES)	Inhibition percent [1] [%]	Inhibition percent [2]	other results
COc1cccc2c1OC1(CCN(C(=O)C(C)(C)OC)CC1)[C@H]1CCCO[C@H]21 [BDG_33900230]	-2.85		
COc1cccc2c1OC1(CCN(Cc3cccc(O)c3)CC1)[C@H]1CCCO[C@H]21 [BDG_33900272]	6.42		
Cc1cnn(CC(=O)N2CCC3(CC2)Oc2ccc(Cl)cc2[C@H]2OCCC[C@@H]23)c1 [BDG_33900405]		5.31	
Cc1ccc2c(c1)OC1(CCN(Cc3ccc(Cl)cn3)CC1)[C@H]1CCCO[C@H]21 [BDG_33900424]		0.92	
COc1ccccc1C(=O)N1CCC2(CC1)Oc1ccc(Cl)cc1[C@H]1OCCC[C@@H]12 [BDG_33900472]	10.01		
CS(=O)(=O)c1ccc(CN2CCC3(CC2)Oc2ccc(Cl)cc2[C@H]2OCCC[C@@H]23)cc1 [BDG_33900656]	-0.96		
CC(C)N1CC[C@H]2O[C@H]3c4ccccc4OC(C)(C)[C@@H]3C[C@H]21 [BDG_33900670]			Inhibition percent [3]: -3.00%
COCC(=O)N1CC[C@H]2O[C@H]3c4ccccc4OC(C)(C)[C@@H]3C[C@H]21 [BDG_33900725]			Inhibition percent [3]: 0.0324%
CC1(C)Oc2ccccc2[C@@H]2O[C@@H]3CCN(C(=O)CCN4CCCC4=O)[C@@H]3C[C@H]21 [BDG_33901240]		0.48	
Clc1ccc2c(c1)[C@H]1OCCC[C@@H]1C1(CCN(CC3CCOCC3)CC1)O2 [BDG_33901423]			Inhibition percent [3]: -1.08%
C[C@@H]1CC[C@@H]2[C@@H](C1)c1c(ccc(C(=O)NCCN(C)C)c1O)OC2(C)C [BDG_33904603]	9.91		
C[C@@H]1CC[C@@H]2[C@@H](C1)c1c(ccc(C(=O)O)c1O)OC2(C)C [BDG_33904752]			Inhibition percent [3]: 2.57%
CC(=O)N[C@H](CC(N)=O)C(=O)N1CC[C@@H]2O[C@@H]3c4ccccc4OC(C)(C)[C@H]3C[C@@H]2C1 [BDG_33905309]		0.54	
CC(=O)N[C@@H](Cc1c[nH]c2ccccc12)C(=O)N1CC[C@H]2O[C@H]3c4cc(Cl)ccc4OC(C)(C)[C@@H]3C[C@H]2C1 [BDG_33905586]	-0.13		
O=[N+]([O-])c1ccc2c(c1)[C@H]1OCCC[C@@H]1C1(CCCCC1)O2 [BDG_33907582]			Inhibition percent [3]: 0.74%
CC(C)(C)OC(=O)N1CC[C@H]2O[C@H]3c4ccc(O)cc4OC(C)(C)[C@@H]3C[C@@H]2C1 [BDG_33953342]			Inhibition percent [3]: 2.11%
CC1(C)Oc2ccccc2[C@@H]2O[C@@H]3CCCN[C@@H]3C[C@H]21 [BDG_33956274]			Inhibition percent [3]: -3.58%
CCOc1cccc2c1OC(C)(C)[C@@H]1C[C@@H]3CNCC[C@H]3O[C@@H]21 [BDG_33956280]			Inhibition percent [3]: -0.94%
CC(C)=CCC[C@@]1(C)Oc2cc(OCCO)ccc2[C@H]2O[C@H]3CCN(C(=O)OC(C)(C)C)C[C@@H]3C[C@@H]21 [BDG_33958723]	5.54		
COc1cccc2c1OC(C)(C)[C@H]1CC3(CCNCC3)[C@H](C)O[C@H]21 [BDG_33959669]			Inhibition percent [3]: 0.05%
CC(C)[C@H](NC(=O)[C@H](C)N)C(=O)N1CCC[C@H]2O[C@H]3c4cc(Cl)ccc4OC(C)(C)[C@@H]3C[C@H]21 [BDG_34017951]	-1.63		

Structure (SMILES)	Inhibition percent [1] [%]	Inhibition percent [2]	other results
C[C@@H]1CC[C@@H]2[C@@H](C1)c1c(ccc(C(=O)NCC(C)(C)CN3CCCC3)c1O)OC2(C)C [BDG_34018827]		1.80	
C[C@@H]1CC[C@@H]2[C@@H](O1)c1cc(C(=O)NCCc3ccccc3)ccc1OC2(C)C [BDG_34018895]			Inhibition percent [3]: -0.86%
CC(C)CCC[C@@]1(C)Oc2cc(O)ccc2[C@H]2OCC3(CCNCC3)C[C@@H]21 [BDG_34020305]		19.22	
CC(C)CCC[C@]1(C)Oc2ccccc2[C@H]2OCC3(CCCN3)C[C@@H]21 (stereo partly shown) [BDG_34020347]	1.89		
O=C(NCCc1ccccc1)[C@@H]1[C@H](O)[C@@H](c2ccc(F)cc2)CN1C(=O)CCc1ccc(Cl)cc1 [BDG_34023221]			Inhibition percent [3]: 2.58%
COC(=O)C[C@H]1CC[C@H]2[C@H](O1)c1cc(-c3ccccc3)ccc1OC2(C)C [BDG_34023292]	2.57		
COc1ccc2c(c1)OC(C)(C)[C@H]1CC[C@H](C)O[C@H]21 [BDG_34023313]	-1.30		
C[C@@H]1CC[C@@H]2[C@@H](O1)c1cc(OCc3ccccc3)c(C=O)cc1OC2(C)C [BDG_34027484]			Inhibition percent [3]: 0.0122%
C[C@@H]1CC[C@@H]2[C@@H](O1)c1cc(OCc3ccccc3)c(CO)cc1OC2(C)C [BDG_34027487]			Inhibition percent [3]: -0.0357%
Cc1c(CN2C[C@H](c3ccc(F)cc3)[C@@H](O)[C@H]2C(=O)NCCc2ccccc2)[nH]c2ccc(F)cc12 [BDG_34027529]		6.14	
CC(C)C[C@H]1CN(C(=O)c2ccc(O)cc2)CC[C@H]1Nc1cccc(Cl)c1 [BDG_34030674]			Inhibition percent [3]: 7.44%
CC1(C)Oc2ccc(O)cc2[C@H]2O[C@@H](c3ccccc3)CC[C@@H]21 [BDG_34039634]	6.48		
CN(C)C(=O)[C@@H]1C[C@@H](n2cc(C(=O)NCCc3ccccc3)ccc2=O)[C@H](c2ccccc2)N1C [BDG_34039793]		1.80	
CC1(C)Oc2ccc(OCc3ccccc3)cc2[C@@H]2O[C@H](CC(=O)O)CC[C@H]21 [BDG_34041764]		0.20	
Cc1cc(O[C@@H]2C[C@@H](NC(=O)CCC(=O)O)[C@H](N3CCc4ccccc4C3)[C@H]2O)cc(C(C)C)c1 [BDG_34049574]	0.88		
O=C(O)CCC(=O)N[C@@H]1C[C@@H](Oc2cccc(Cl)c2)[C@H](O)[C@H]1N1CCc2ccccc2C1 [BDG_34049608]	-0.68		
O=C(O)CCC(=O)N[C@@H]1C[C@@H](Oc2cccc(C(F)(F)F)c2)[C@H](O)[C@H]1N1CCc2ccccc2C1 [BDG_34049652]		-0.28	
CN(Cc1ccccc1)[C@@H]1[C@@H](O)[C@H](Oc2cccc(C(F)(F)F)c2)C[C@H]1NC(=O)CCN [BDG_34056156]		-1.01	
O=C(O)c1cc(F)ccc1Oc1ccccc1 [BDG_34062401]	-1.72		
CC1(C)Oc2cc(OCCCNS(C)(=O)=O)ccc2[C@@H]2O[C@H](CCc3ccc(F)cc3)CC[C@H]21 [BDG_34121335]	5.43		
CC1(Cc2ccc(F)cc2)Cc2cc(C(=O)N(CCCc3ccc(Cl)cc3)CC(=O)O)ccc2O1 (stereo not shown) [BDG_34127624]	0.89		

Structure (SMILES)	Inhibition percent [1] [%]	Inhibition percent [2]	other results
COc1cccc2c1OC(C)(C)[C@H]1C[C@@H]3[C@H](CCN3CC(=O)O)O[C@H]21 [BDG_34128979]		-2.31	
COc1cccc2c1OC(C)(C)[C@H]1CC[C@H](C3CCN(CC(=O)O)CC3)O[C@H]21 [BDG_34129039]	-1.85		
CC1(C)Oc2cc(O)ccc2[C@@H]2O[C@@H]3CCCN(C(=O)CCCC(=O)O)[C@@H]3C[C@H]21 [BDG_34129513]	5.44		
COc1cccc2c1OC(C)(C)[C@H]1CC[C@H](C3CCN(C(=O)CCCC(=O)O)CC3)O[C@H]21 [BDG_34129516]			Inhibition percent [3]: -0.90%
CN(C)CCOc1cccc2c1OC(C)(C)[C@H]1C[C@H]3CN(C(=O)CCCC(=O)O)CC[C@@H]3O[C@H]21 [BDG_34129529]	0.07		
CC1(C)C[C@H]2[C@H](CCCN2C(=O)CCCc2cn[nH]c2)N1c1cccc(C(F)(F)F)c1 [BDG_34130326]	14.87		
O=C1CCCC[C@]2(CN(C(=O)CCCc3cn[nH]c3)C[C@H]2c2ccccc2F)N1 [BDG_34130330]		-3.21	
CC1(C)Oc2c(cccc2C(F)(F)F)[C@@H]2O[C@@H]3CCN(C(=O)CCCc4cn[nH]c4)[C@@H]3C[C@H]21 [BDG_34130346]		7.09	
CC1(C)Oc2c(O)cccc2[C@@H]2O[C@@H]3CCN(C(=O)CCCc4cn[nH]c4)C[C@@H]3C[C@H]21 [BDG_34130377]		1.08	
CC(C)(CC(=O)O)CC(=O)N1CC[C@@H]2O[C@@H]3c4cc(Cl)ccc4OC(C)(C)[C@H]3C[C@@H]2C1 [BDG_34130555]		0.45	
CC(=O)NCCCCCC(=O)N1CC[C@H]2O[C@H]3c4cc(C(C)(C)C)ccc4OC(C)(C)[C@@H]3C[C@@H]21 [BDG_34131400]		3.20	
CC(=O)NCCCCCC(=O)N1C[C@@H](c2ccc(F)cc2)[C@@]2(CCCCC(=O)N2)C1 [BDG_34131511]		3.80	
CCOc1cccc2c1OC(C)(C)[C@@H]1C[C@@H]3[C@@H](CCCN3C(=O)c3cccc(F)c3C(=O)O)O[C@@H]21 [BDG_34132357]		-0.29	
COc1ccccc1N1[C@H]2CCCN(C(=O)c3cccc(OCC(=O)O)c3)[C@H]2CC1(C)C [BDG_34133274]		-3.82	
O=C(O)COc1cccc(C(=O)N2C[C@@H](c3ccccc3F)[C@@]3(CCCCC(=O)N3)C2)c1 [BDG_34133280]		2.13	
CC1(C)Oc2ccccc2[C@H]2O[C@H]3CCN(C(=O)c4cccc(OCC(=O)O)c4)C[C@@H]3C[C@@H]21 [BDG_34133285]			Inhibition percent [3]: 2.74%
CC1(C)Oc2ccc(O)cc2[C@H]2O[C@H]3CCN(C(=O)c4cccc(OCC(=O)O)c4)[C@@H]3C[C@@H]21 [BDG_34133313]	-2.82		
CC1(C)Oc2ccc(Cl)cc2[C@H]2O[C@H]3CCN(C(=O)c4ccccc4OCC(=O)O)C[C@H]3C[C@@H]21 [BDG_34133540]		1.43	
CC1(C)Oc2c(O)cccc2[C@H]2O[C@H]3CCN(C(=O)c4cccc(Cn5ccnc5)c4)[C@@H]3C[C@@H]21 [BDG_34133876]		5.67	

— paper PMC9995496, “A screen for MeCP2-TBL1 interaction inhibitors using a luminescence-based assay” (Scientific Reports, 2023)
